How the values were obtained:
fibroblasts = experiment: Chemokine production by fibroblasts, ELISA of 48 hr. cultures; assay type: cell-based
Description: FIG. 5. Interplay between COX inhibitor indomethacin, IFNα and poly-I:C in the induction of a desirable patterns of chemokine expression in isolated cell cultures. (A) Dose-dependent impact of IFNa and poly-I:C on the production of Teff-, and Treg-attracting chemokines by in vitro generated macrophages (see M&M) and in fibroblasts (obtained from Cascade Biological). Data from one representative experiment of three. (B) Effects of indomethacin on Teff-, and Treg-attracting chemokines produced by macrophages (N=3) by ELISA analysis. The concentrations of chemokines in 48 hr. cultures were analyzed by ELISA.
In order to test the possibility of correcting the chemokine environment in the tumors with low ratios of Teff- to Treg-attracting chemokines, we tested in pilot studies the feasibility of modulating their production using different combinations of IFNα, indomethacin (COX1/2 inhibitor) and poly-I:C in individual populations of tumor-relevant cells (known to infiltrate tumors), such as macrophages, or fibroblasts.

macrophages = experiment: Chemokine production by in vitro generated macrophages, ELISA of 48 hr. cultures; assay type: cell-based
Method: FIG. 5. […] Data from one representative experiment of three. […] The concentrations of chemokines in 48 hr. cultures were analyzed by ELISA. […] In order to test the possibility of correcting the chemokine environment in the tumors with low ratios of Teff- to Treg-attracting chemokines, we tested in pilot studies the feasibility of modulating their production using different combinations of IFNα, indomethacin (COX1/2 inhibitor) and poly-I:C in individual populations of tumor-relevant cells (known to infiltrate tumors), such as macrophages, or fibroblasts.

[1] = test system: colorectal cancer tumor tissues; experiment: Ex vivo tumor/tissue explant culture, chemokine ELISA; assay type: cell-based, human; conditions: for CCL5 expression / production / CXCL10 expression / production: tumor tissues ex vivo, 48 hours, ELISA
Method: FIG. 6. […] (A) Fresh tumor samples from 11 patients with metastatic colorectal cancer were untreated or treated with IFNα and poly-I:C either individually or in combination for 48 hours. The release of CCL5 and CXCL10 into culture media was analyzed by ELISA. Numbers indicate the prevalence of tumors with each chemokine pattern (respective patterns A, B or C). (B) ELISA analysis of CCL5, CCL22 and CXCL10 in tumors untreated or treated with IFNα+pI:C, with or without indomethacin. (C) Heterogeneous response of different tumor lesions from the same patient (CCL5 and CXCL10 production) to the individual components of the chemokine-modulating cocktail. (D) Indomethacin and celecoxib enhance the IFNα/poly-I:C-induced Teff-attracting chemokine expression, but suppress Treg-attracting chemokine expression in colorectal cancer lesions. All cultures were for 48 hr. Combined data from the tumors of 3 different patients (n=3).
FIG. 7. […] (A) In-situ hybridization for respective chemokine mRNA (black grains) in tumor biopsies which were either left untreated or treated with the combination of indomethacin, IFNa and poly-I:C (IAP). (B) ELISA analysis of the chemokine contents in the supernatants of 48 hour-cultured tumor tissues (untreated or treated) from 10 different patients.
In order to test the feasibility of using these factors to manipulate the complex microenvironment of whole tumor tissues, involving all the above cell types and their interactions, we used an ex vivo tumor/tissue explant culture system previously developed to study migration of DCs. This system allowed us to avoid nonspecific activation of the chemokine-producing cells during tumor dissociation.

[2] = test system: marginal liver tissue and liver-metastatic colorectal cancer; experiment: Glycogen phosphorylase mRNA expression as check of tissue survival; assay type: cell-based, human; conditions: at 20 μM
Method: (§1) FIG. 9. Selective induction of CXCL10 and CCL5 in liver metastases compared to normal liver tissues: role of NF-κB. Matched samples of marginal liver tissues and liver-metastatic colorectal cancer tissues (3 biopsies in 1 ml in 24 well plate), were cultured for 24 hrs either untreated or treated with IFNα+poly-I:C+indomethacin and (A) analyzed for CCL5 and CXCL10 expression by Taqman. […] The supernatants were analyzed for CCL5 production by ELISA (see matched CXCL10 data in FIG. 4). (C) CAY10470 (20 μM) effects on liver glycogen phosphorylase mRNA expression in matched marginal liver tissue and liver-metastatic colorectal cancer.
CAY10470, used in these experiments (at 20 μM), was non-toxic, as shown by similar expression of glycogen phosphorylase mRNA in untreated and treated tissues (FIG. 9C).

[3] = test system: liver-metastatic colorectal cancer tissues versus marginal liver tissues; experiment: Chemokine production in matched liver-metastatic tumor and marginal liver tissues (ELISA, Taqman); assay type: cell-based, human; conditions: tumor tissues, NF-κB inhibitor at 20 μM
Method: as §1
Using matched tissue samples from 10 patients with metastatic colon cancer, we compared the responsiveness to the chemokine-modulating regimen between liver-metastatic tumor tissues and marginal tissues. […] This increased responsiveness of tumors compared to marginal tissues was not due to decreased survival of the marginal tissues, as determined by undisturbed expression levels of glycogen phosphorylase (FIG. 9C).

melanoma tissue = melanoma tissue ex vivo, increasing concentrations of melphalan
Method: FIG. 13. […] Tumor biopsies were cultured ex vivo in the presence of increasing concentrations of melphalan in the absence or presence of the triple combination (CAP) of the Celecoxib, IFNα and poly-I:C. Secretion levels of CC22 and CXCL10 were measured by ELISAs.

[4] = whole tumor tissues, COX inhibitor added to IFNα and poly-I:C

Compound: IFNα
- production of CCL22 (fibroblasts): strong suppressive effect
- production of CCL22 (macrophages): strong suppressive effect
- CCL5 expression / production [1]: variable chemokine expression
- CXCL10 expression / production [1]: variable chemokine expression

Compound: Nc1ccc2ncnc(NCCc3ccc(Oc4ccccc4)cc3)c2c1 [CAY10470]
- toxicity (expression of glycogen phosphorylase mRNA in untreated and treated tissues) [2]: non-toxic
- CCL5 up-regulation by the chemokine-modulating regimen [3]: blocked
- CXCL10 induction by IFNα/poly-I:C/indomethacin [3]: completely abrogated

Compound: COc1ccc2c(c1)c(CC(=O)O)c(C)n2C(=O)c1ccc(Cl)cc1 [indomethacin]
- production of CCL22 (macrophages): suppression of CCL22 production
- effects of IFNα and poly-I:C on Teff- and Treg-attracting chemokines (CCL5, CXCL10 induction, CCL22 suppression) (macrophages; indomethacin added): further potentiated
- IFNα/poly-I:C-induced Teff-attracting chemokine expression ([1]; colorectal cancer lesions, 48 hr, tumors of 3 patients): enhance
- Treg-attracting chemokine expression ([1]; colorectal cancer lesions, with IFNα/poly-I:C, 48 hr, tumors of 3 patients): suppress
- CCL22 levels [1, 4]: reduced
- production of CCL5 induced by the combination IFNα and poly-I:C [1, 4]: further enhanced
- production of CXCL10 induced by the combination IFNα and poly-I:C [1, 4]: further enhanced

Compound: polyinosinic-polycytidylic acid [poly-I:C]
- CCL5 expression / production [1]: variable chemokine expression
- CXCL10 expression / production [1]: variable chemokine expression

Compound: N[C@@H](Cc1ccc(N(CCCl)CCCl)cc1)C(=O)O [melphalan]
- ratio between Treg-attracting and Teff-attracting chemokines (CCL22/CXCL10) (melanoma tissue): undesirable elevation

Source: patent US20140255341A1, “Tumor Selective Chemokine Modulation” (priority 2011, published 2014)
